Assay results from patent publication US11229641B2, “Inhibitors of Bcl-2” (CASE WESTERN RESERVE UNIVERSITY, priority 2016, dated 2022).
Where “and” joins values, the source holds several entries; their conditions need not be identical. Equal values may be shown once. Where no end group is shown, it is not given here.

Assays:
Bcl-XL = Bcl-XL (Homo sapiens, UniProt Q07817); conditions: read-out: IC50 displacing BH3 peptides; cited from earlier work
Bcl-B = target: T1, Bcl-B (Homo sapiens, UniProt Q9HD36); conditions: read-out: IC50 displacing BH3 peptides; cited from earlier work
T1 sequence (Q9HD36 1-204): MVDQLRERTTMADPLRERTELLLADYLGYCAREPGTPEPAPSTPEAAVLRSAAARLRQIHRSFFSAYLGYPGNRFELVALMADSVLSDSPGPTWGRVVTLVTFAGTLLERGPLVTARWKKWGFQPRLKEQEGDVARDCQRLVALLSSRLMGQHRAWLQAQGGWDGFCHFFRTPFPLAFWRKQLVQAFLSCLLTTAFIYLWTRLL

Bfl-1 = target: T2, Bfl-1 (Homo sapiens, UniProt Q16548); conditions: read-out: IC50 displacing BH3 peptides; cited from earlier work
T2 sequence (Q16548 1-175): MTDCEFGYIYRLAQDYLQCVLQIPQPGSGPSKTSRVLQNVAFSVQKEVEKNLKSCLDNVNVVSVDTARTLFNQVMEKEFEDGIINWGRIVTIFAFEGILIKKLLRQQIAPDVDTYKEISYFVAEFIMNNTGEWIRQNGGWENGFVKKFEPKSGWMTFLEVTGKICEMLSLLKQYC

multiple myeloma lines = assay: Cell death induction in multiple myeloma lines (MTS assay); format: cell-based, human
Description: (§1) Of the compounds tested, 148 were identified as hits at 6.5 μM in the primary single-point screen with activity>30% relative to apoptosis induced by 10 μM BIRD-2 in NCI-H929 cells. These compounds, along with 320 additional compounds chosen by virtual screening, were screened for hit confirmation. Also, a secondary assay for compound effect on apoptosis was performed in KMS-12-BM cells. […] Thus, a total of 39 compounds were chosen for triplicate confirmation screening. The findings are schematically summarized by means of the heat map in FIG. 5. An ID number, assigned by the chemist(s) who synthesized the compounds, is located to the left. This ID is for identification purposes only and does provide other information about the compound. Columns 1 and 2 represent caspase activity, measured after 24 hr of treatment at UCDDC, normalized to the highest caspase activity observed. Activity levels range from low, represented by the color purple, to high, represented by the color red. Considerable variation among different compounds and between the myeloma lines is observed evident. Columns 3 and 4 in the heat map (FIG. 5) summarize results of cell death assays testing cell death induction in the same myeloma lines in the Distelhorst laboratory using the MTS assay. In addition, the same assay was used to test the sensitivity of primary human CLL cells to each compound, as summarized in lane 5. The effect of each compound on intracellular Ca^2+ concentration was measured by digital imaging and results are shown as percentage of cells responding with a significant (more than twofold above baseline) elevation of cytoplasmic Ca^2+ concentration. The choice of the Jurkat line for these Ca^2+ measurements was based on our extensive evidence that BIRD-2 binds to the BH4 domain of Bcl-2 endogenously present in this line and that disruption of Bcl-2-IP3R interaction by BIRD-2 elevates cytoplasmic Ca^2+ in this line. An example of Ca2^+ elevation in response to one of the compounds is illustrated in FIG. 6.

BH4 domain of Bcl-2 = target: T3, BH4 domain of Bcl-2 (Homo sapiens, UniProt P10415); assay: Surface plasmon resonance (Biacore) binding to the BH4 domain of Bcl-2; conditions: SPR; for Kd: dose response / full binding curve
T3 construct: borders or tags not given
Text: The next step in compound validation was to perform surface plasmon resonance (Biacore) to test for binding to the BH4 domain of Bcl-2. […] To date, we have positive evidence of compound binding to the BH4 domain in 4 compounds tested by SPR (FIG. 8). Testing of the remaining compounds from the 14 lead compounds is in progress.

primary human CLL cells [1] = assay: Cell death induction in primary human CLL cells (MTS assay); format: cell-based
Description: as §1

Jurkat cells = assay: Cytoplasmic Ca2+ elevation by digital imaging in Jurkat cells; format: cell-based
Description: as §1, with “These” for “Of the compounds tested, 148 were identified as hits at 6.5 μM in the primary single-point screen with activity>30% relative to apoptosis induced by 10 μM BIRD-2 in NCI-H929 cells. These”, “Columns 3 and 4 in the heat map (FIG. 5) summarize results of cell death assays testing cell death induction in the same myeloma lines in the Distelhorst laboratory using the MTS assay.” left out, “The choice of the Jurkat line for these Ca^2+ measurements was based on our extensive evidence that BIRD-2 binds to the BH4 domain of Bcl-2 endogenously present in this line and that disruption of Bcl-2-IP3R interaction by BIRD-2 elevates cytoplasmic Ca^2+ in this line.” left out, “6. […]” for “6.”

[2] = system: small cell lung cancer (SCLC) cells; assay: Cytotoxicity in small cell lung cancer (SCLC) lines; format: cell-based
[3] = system: normal human peripheral blood lymphocytes; assay: Toxicity toward normal cells; format: cell-based
primary human CLL cells [4] = assay: Ca2+ elevation in primary CLL cells; format: cell-based
[5] = system: KMS-12-BM human myeloma cells; assay: Combination with ABT-263, cell viability by CellTiter-Glo assay; format: cell-based; conditions: fixed concentration ratio, at several compound concentrations, CI<1 synergistic
Text: Since Bcl-2 works by two distinct mechanisms to inhibit apoptosis, we investigated the possibility that 854697 and ABT-263, which selectively target each of these mechanisms, might synergistically kill cancer cells. […] Combination indices (CI) were computed at each concentration to determine whether the increased cytotoxicity is due to an additive (CI=1) or synergistic (CI<1) effect. At several compound concentrations, the CI was <1, indicating synergistic cell death induction when these agents that act by different mechanisms are combined. These findings indicate additional value in developing 854697 as a novel therapeutic agent for Bcl-2-positive malignancies.

[6] = system: H2171 Small cell lung cancer (SCLC) cells; assay: BIRD-2/ABT-263 combination cytotoxicity in SCLC cells; format: cell-based; conditions: 24 hr, FIG. 4
Description: FIG. 4 is a graph illustrating BIRD-2/ABT-263 synergism. H2171 Small cell lung cancer (SCLC) cells treated from 24 hr with 5 μM BIB1 and 39 nM ABT-263 alone or together.

[7] = system: human myeloma cell lines (HMCLs); assay: Apoptosis induction in human myeloma cell lines (HMCLs); format: cell-based; conditions: including two lines resistant to ABT-737, ABT-263 and ABT-199
Text: Furthermore, one of the BIRD-2-sensitive lines, NCI-H929, corresponds to a multiple molecular subgroup that is resistant to BH3-mimetic agents and belongs to a poor prognosis category associated with chromosomal translocation. Thus, although BH3-mimetic agents represent a major advance in cancer treatment, resistance to these agents occurs and limits their efficacy, not only in multiple myeloma but other lymphoid malignancies as well. The resistance problem is not unique to HMCLs, but is illustrated by studies of ABT-737 and ABT-199 in primary MM cells where resistance was detected in more than half of primary patient samples tested. Therefore, these findings indicate the potential therapeutic importance of targeting both of Bcl-2's anti-apoptotic mechanisms. Adding to the potential value of targeting Bcl-2-IP3R interaction for treatment of multiple myeloma is the evidence reported here of synergistic activity when combined with chemotherapeutic agents typically employed in multiple myeloma treatment, and with ABT-263 and ABT-199.

T3 sequence (P10415 6-30 limits assumed): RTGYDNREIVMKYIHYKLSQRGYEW
Bcl-XL, sequence (Q07817 whole entry, species assumed): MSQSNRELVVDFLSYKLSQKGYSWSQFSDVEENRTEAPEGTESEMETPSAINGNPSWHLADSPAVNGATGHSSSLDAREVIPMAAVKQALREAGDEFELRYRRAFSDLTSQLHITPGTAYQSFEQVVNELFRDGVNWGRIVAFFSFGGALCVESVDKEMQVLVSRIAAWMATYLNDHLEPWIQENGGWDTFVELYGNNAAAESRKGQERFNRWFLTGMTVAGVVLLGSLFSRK

For `Cc1cc2c(C(C)C)c(O)c(O)c(C=O)c2c(O)c1-c1c(C)cc2c(C(C)C)c(O)c(O)c(C=O)c2c1O` [Gossypol, 1,6,7,1′,6′,7′-Hexahydroxy-5,5′-diisopropyl-3,3′-dimethyl-[2,2′]binaphthalenyl-8,8′-dicarbaldehyde], the IC50 (Bcl-XL) is listed as ~0.5 µM, the IC50 (Bcl-B) is listed as ~0.5 µM and the IC50 (Bfl-1) is listed as ~0.5 µM.
For `O=C(/C=C/c1ccc(Cl)c(Cl)c1)NN1CCOC1=O` [compound 96505], the cell death induction (multiple myeloma lines) was “inducing cell death”, the “binding to the BH4 domain of Bcl-2” value (BH4 domain of Bcl-2) was “bind to the BH4 domain of Bcl-2” and the Kd (BH4 domain of Bcl-2) was 24 µM. For the same compound, the cell death induction (primary human CLL cells [1]) was “inducing cell death”.
In the case of `COc1ccc2c(c1)CC[C@@H]1[C@@H]2CC[C@]2(C)[C@@H](NCCCCCCN3C(=O)C=CC3=O)CC[C@@H]12` [U73122, reference compound], the “effect on 854697-induced Ca2+ elevation” value (Jurkat cells; Jurkat cells pretreated 30 min with U73122) is reported as “completely blocked”.
In the case of `CN(C)C(=O)OCC(Cc1ccc2ccccc2c1)N1CCN(C(=O)C(N)Cc2ccc(F)cc2)C(CO)C1` (centres unmarked) [compound 854697], the “killing of small cell lung cancer cells” value [2] is reported as “kills small cell lung cancer cells”, the cell death induction (multiple myeloma lines) is reported as “inducing cell death” and the “binding to the BH4 domain of Bcl-2” value (BH4 domain of Bcl-2) is reported as “bind to the BH4 domain of Bcl-2”. For the same compound, the Kd (BH4 domain of Bcl-2) was 5.6 µM and 5.7 µM and 5.71 µM, the “toxic activity toward normal cells” value [3] was “does not have toxic activity toward normal cells” and the “Ca2+ elevation” value (primary human CLL cells [4]) was “induces Ca^2+ elevation”. The “Combination index (CI) with ABT-263” value [5] was < 1, the “Ca2+ elevation” value (Jurkat cells; Jurkat cells) was “inducing IP3R-mediated Ca^2+ elevation” and the cell death induction (primary human CLL cells [1]) was “inducing cell death”.
With “RKKRRQRRRGGNVYTEIKCNSLLPLAAIVRV [BIRD-2]” the “cytotoxicity in combination with ABT-263” value [6] was “synergistic cytotoxicity”, the selective cytotoxicity ([2]; 15 SCLC lines treated) was “greater than two-fold selective cytotoxicity in 11 of the lines” and the apoptosis induction [7] was “induces apoptosis”.
For `CSc1c(C#N)c(N)nc(SCC(=O)c2ccc(OC(F)F)cc2)c1C#N` [compound 197392], the cell death induction (multiple myeloma lines) was “inducing cell death”, the “binding to the BH4 domain of Bcl-2” value (BH4 domain of Bcl-2) was “bind to the BH4 domain of Bcl-2” and the cell death induction (primary human CLL cells [1]) was “inducing cell death”.
